Experimental data as given in the supplement of paper PMC10307832.

Key:
Test in all cases: relative viability (nuclei count vs DMSO), 5 days (fraction); higher = more cells survive
[1] = compound: C1CC(C1)(C(=O)O)C(=O)O.[NH2-].[NH2-].[Pt+2] [Carboplatin] + CC1(C)CCC(c2ccc(Cl)cc2)=C(CN2CCN(c3ccc(C(=O)NS(=O)(=O)c4ccc(N[C@H](CCN5CCOCC5)CSc5ccccc5)c(S(=O)(=O)C(F)(F)F)c4)cc3)CC2)C1 [Navitoclax] (partner 0.5 µM)
Outline: (§1)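 Values are medians from duplicate plates. Each reflects relative viability, defined as the nuclei count of treated wells over that of vehicle wells. Lung cancer cell lines in 1536-well plates were pin-tool dosed one day after seeding with one drug alone or with a fixed anchor-drug dose plus five library-drug doses (not always all listed) in √10 steps, then fixed, stained and imaged at 4× after 5 days.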

[2] = compound: C1CC(C1)(C(=O)O)C(=O)O.[NH2-].[NH2-].[Pt+2] [Carboplatin] + N=C(N)NC(=N)NCCc1ccccc1 [Phenformin] (partner 250 µM)
Outline: as §1

[3] = compound: CC[C@H](C)N1C=C(C2=C(C=C(C=C21)C3=CN=C(C=C3)N4CCNCC4)C(=O)NCC5=C(C=C(NC5=O)C)C)C [GSK126] + CC(=O)Nc1cccc(-n2c(=O)n(C3CC3)c(=O)c3c(Nc4ccc(I)cc4F)n(C)c(=O)c(C)c32)c1 [Trametinib] (partner 0.02 µM)
Outline: as §1

[4] = compound: CC[C@H](C)N1C=C(C2=C(C=C(C=C21)C3=CN=C(C=C3)N4CCNCC4)C(=O)NCC5=C(C=C(NC5=O)C)C)C [GSK126] + CCNC(=O)c1noc(-c2cc(C(C)C)c(O)cc2O)c1-c1ccc(CN2CCOCC2)cc1 [Luminespib] (partner 0.01 µM)
Outline: as §1

Cell Line	relative viability ([1]; first compound 0.08 µM)	relative viability ([1]; first compound 0.253 µM)	relative viability ([1]; first compound 0.8 µM)	relative viability ([1]; first compound 2.53 µM)	relative viability ([1]; first compound 8 µM)	relative viability ([2]; first compound 0.08 µM)	relative viability ([2]; first compound 0.253 µM)	relative viability ([2]; first compound 0.8 µM)	relative viability ([2]; first compound 2.53 µM)	relative viability ([2]; first compound 8 µM)	relative viability ([3]; first compound 0.08 µM)	relative viability ([3]; first compound 0.253 µM)	relative viability ([3]; first compound 0.8 µM)	relative viability ([3]; first compound 2.53 µM)	relative viability ([3]; first compound 8 µM)	relative viability ([4]; first compound 0.08 µM)	relative viability ([4]; first compound 0.253 µM)	relative viability ([4]; first compound 0.8 µM)	relative viability ([4]; first compound 2.53 µM)	relative viability ([4]; first compound 8 µM)
NCI-H1437	1.07	1.14	1.09	1.05	0.97	0.29	0.303	0.294	0.301	0.299	0.507	0.528	0.494	0.459	0.501	1.09	1.07	1.04	1.11	1.06
H3255	0.658	0.563	0.634	0.471	0.476	0.291	0.381	0.395	0.349	0.364	0.685	0.628	0.639	0.546	0.571	0.988	0.968	0.898	0.95	1.01
NCI-H1666	1.04	1.12	0.745	0.853	0.641	0.612	0.6	0.531	0.565	0.49	0.859	0.998	0.841	0.818	0.838	1.04	0.926	0.858	0.855	0.907
NCI-H2228	1.2	0.818	0.855	0.744	0.472	0.26	0.342	0.294	0.257	0.282	0.677	0.502	0.407	0.606	0.513	0.173	0.12	0.116	0.118	0.205
CAL-12T	1.2	1.21	1.23	1.26	1.09	0.56	0.584	0.591	0.534	0.557	0.407	0.366	0.311	0.382	0.348	0.605	0.552	0.45	0.496	0.636
SK-LU-1	0.824	0.774	0.946	0.872	0.387	0.78	0.578	0.44	0.533	0.41	0.519	0.524	0.485	0.816	0.486	0.194	0.192	0.215	0.182	0.214
LU99A	0.842	0.881	0.829	0.774	0.581	0.958	0.854	0.738	0.809	0.647	0.631	0.519	0.547	0.552	0.546	0.246	0.328	0.208	0.253	0.199
RERF-LC-KJ	1.29	0.739	0.822	0.915	0.652	0.45	0.387	0.386	0.335	0.317	0.902	0.981	0.733	0.841	0.825	1.22	1.09	1.31	1.3	1.16
